The text below walks through data of patent publication US20220288277A1, “SURFACE COATINGS AND IMPLANTABLE DEVICES COMPRISING DIMERIC STEROID PRODRUGS, AND USES THEREOF” (Ripple Therapeutics Corporation, priority 2019, published 2022).

Series [1] can be described thus: Drug release from coated surfaces and extruded cylinders in PBS at 37 C, monitored by HPLC. Type of series: physicochemical. The text has this:
As stated herein, “t50” is the time at which 50% of the releasable drug has been released from a surface coating or drug depot of the disclosure. Time t10 is, correspondingly, the time at which 10% of the releasable drug has been released from a surface coating or drug depot of the disclosure. When the release curve is perfectly linear, t10=⅕ of t50. When there is an initial burst of released drug, t10 is much less than ⅕ of t50. In the compositions and methods of the disclosure t10 can be equal to or greater than 1/10 of t50. Drug release from a surface coating, drug depot, or compound of the disclosure can be measured at 37° C. in 100% bovine serum, or at 37° C. in PBS (phosphate buffered saline), as described in Example 1.
Different substrates including poly(styrene-block-isobutylene-block-styrene) (SIBS) films, titanium coupons, and fibrous Dacron (polyethylene terephthalate) meshes (FIG. 2A) were coated with compound 1 from acetone by drop coating (FIG. 2B) forming an amorphous (glassy) coating. […] The bottom of a glass vial was coated with compound 1 and dexamethasone from dichloromethane (DCM) using the drop coating method.
Compound 2 was dissolved in DCM and was drop coated onto the bottom of a glass vial and solvent was evaporated to form the surface coating. Drug release was carried out in PBS at 37 C with buffer changes and was monitored by HPLC.
Compound 3 was dissolved in DCM and was drop coated onto the bottom of a glass vial and solvent was evaporated to form the surface coating. Drug release was carried out in PBS at 37 C with buffer changes and was monitored by HPLC.
Compound 1 was formed into cylinders by heat extrusion from the intermediate glassy state by pre-melting compound 1 prior to extrusion. In vitro drug release was carried out in PBS at 37 C and drug release was quantified by HPLC. […] The cylinders can be used as a drug depot within a medical device or injected adjacent to the medical device to release dexamethasone.

The nature of series [2]: Coating retention / drug release from coated substrates in 100% FBS at 37 C, HPLC. Type of series: physicochemical. On the procedure:
Compound 1 was drop coated with the same total amount of compound 1 from an organic solution (acetone) onto SIBS films, Dacron films, and fibrous Dacron meshes, and drug release was carried out in 100% FBS at 37 C. The coating was extracted from the substrates at different time points and was plotted as a percentage of coating retained over time (FIG. 4).
Substrates coated with Compound 1 by drop coating or spray coating were incubated in fetal bovine serum (FBS) to determine the amount of Compound 1 retained over time. Each coated substrate was placed in a glass vial containing 4 mL FBS and incubated at 37° C. on a rotating platform. After 1 to 4 days, the remaining coating was extracted and was determined by HPLC (FIG. 9). The amount of Compound 1 retained following 1-day incubation in FBS ranged from 15 to 100% of the initial amount loaded and roughly correlated with thickness (total loading) of the coating.
Drug release was carried out in 100% FBS and agitation at 37 C with buffer changes and was monitored by HPLC.

Series [3] has as its system device related foreign body reaction in the rat subcutaneous model. The series can be described thus: Rat study of coated substrates, morphometric image analysis of CD68 stained cross-sections. Type of series: in vivo, female Wistar rats. The conditions noted are these: spray coated thin films or drop coated discs, days 3 and 7, compared to non-coated substrates. On the procedure: Compound 1 was dissolved in acetone and spray coated onto thin films of a polymeric substrate or drop coated onto discs of a different polymeric substrate. Both coatings were dried at ambient conditions over night and sterilized using Ethylene oxide (ETO) gas. Coated substrates were then implanted into the dorsal subcutaneous space in female Wistar rats with starting weights of 250-290 g. Animals were euthanized at the peak of inflammatory phase in days 3 and 7. The cells in the surrounding area of both substrates were assessed by morphometric image analysis on cross-section of excised substrates with associated tissue that were stained for CD68 (inflammatory cell marker), ASMA (fibroblast marker) and DAPI ([…]). The number of recruited CD68 positive cells were reduced in response to both substrates coated with compound 1 compared to non-coated substrates. Thus, compound 1 suppresses inflammation in device related foreign body reaction and fibrosis in the rat subcutaneous model regardless of coating method or substrate.

The subject of series [4] is skin surrounding the injection sites. The series can be described thus: Rat study with spray coated substrates injected into the dorsal subcutaneous space. Type of series: in vivo, male SD rats. The conditions noted are these: highest coating amount (23.3 μg dexamethasone), day 14. The method, then: Coatings of Compound 1 in various dexamethasone amounts (1.4-23.3 μg) were spray coated onto substrates as described in Example 4 and sterilized by ETO gas. Coated substrates were injected into the dorsal subcutaneous space of male SD rats with starting weights of 100-124 g (Envigo, Frederick, Md. USA). Animals were euthanized at 0, 3, 7 and 14 days and the skin surrounding the injection sites dissected. Coating remaining at each time point was quantified by HPLC.

Series [5] is described as follows: Drug release from injectable cylinders in the subcutaneous tissue of rats. Type of series: in vivo, male Sprague Dawley rats. To be noted: cylinders 23G-32G, 2 mm, subcutaneous with suture, 7 and 28 days. On the procedure:
Cylinders of Compound 1 in various diameters (23G-32G) and 2 mm in length were processed as described in Example 1 and were loaded into needles with a piece of medical sutures as shown in FIG. 21A. The loaded needles were sterilized by ethylene oxide gas. The cylinders and sutures were injected into the dorsal subcutaneous space of male Sprague Dawley rats with starting weights of 100-124 g (Envigo, Frederick, Md. USA). Animals were euthanized at 7 and 28 days and the skin surrounding the injection sites were dissected. Pellet drug content at each time point was calculated from in-situ image analysis, confirmed by HPLC, and was plotted as cumulative drug release from the cylinders (FIG. 21C).

The next series deals with device related fibrosis. The series can be described thus: Rat study of coated polymeric discs, collagenous capsule wall thickness (Masson's Trichrome). Type of series: in vivo, female Wistar rats. The conditions noted are these: drop coated discs, subcutaneous, day 7 and day 21, versus non-coated implants. From the text:
The coatings were dried at ambient conditions over night and sterilized using Ethylene oxide (ETO) gas. Coated substrates were then implanted into the dorsal subcutaneous space in female Wistar rats with starting weights of 250-290 g. Animals were euthanized at day 7 (inflammatory phase) and day 21 (fibrotic phase) to assess the tissue response to coated versus non-coated implants. The thickness of the collagenous capsule wall surrounding the implant was quantified by morphometric image analysis on cross-section of excised capsules with associated tissue that were stained with Masson's Trichrome.

Series [6] in a line: In vitro drug release profiles from coated discs. Type of series: physicochemical. The conditions noted are these: coated discs (FIG. 18B).
Series [7] in a line: Ethylene oxide (ETO) gas sterilization of coated fibrous Dacron meshes, purity and drug release pre- and post-ETO. Type of series: physicochemical. To be noted: ETO gas at 55° C. On the procedure:
Compound 1 coated onto fibrous Dacron meshes were sterilized by ethylene oxide (ETO) gas at a temperature of 55° C. […] Drug release was carried out in PBS at 37 C.

The nature of series [8]: Drug release profiles of heat press versus spray coated surface coatings. Type of series: physicochemical. To be noted: similar drug densities (8.2-8.3 μg/mm^2). On the procedure: Drug release profiles from Compound 1 surface coatings with similar drug densities (8.2-8.3 μg/mm^2) formed from the heat press process and spray coating process were similar (FIG. 16B), confirming that drug release is a material property and not influenced by coating technique.

Turning to “hydrocortisone-triethylene glycol-hydrocortisone [Compound 2]”, in [1] (drop coated from DCM onto glass vial, PBS at 37 C with buffer changes), the “Cumulative drug release from the coated surface” value was “consistent drug release”.

As to `C[C@@H]1C[C@H]2[C@@H]3CCC4=CC(=O)C=C[C@]4(C)[C@@]3(F)[C@@H](O)C[C@]2(C)[C@@]1(O)C(=O)COC(=O)OCCOCCOCCOC(=O)OCC(=O)[C@@]1(O)[C@H](C)C[C@H]2[C@@H]3CCC4=CC(=O)C=C[C@]4(C)[C@@]3(F)[C@@H](O)C[C@@]21C` [Compound 1, dexamethasone-triethylene glycol-dexamethasone], the “Drug release mechanism from extruded cylinders” value in series [1] (cylinders extruded with 23G and 30G nozzles, PBS at 37 C) is reported as “surface erosion”. The “Drug release from the coated surfaces” value in series [1] (drop coated on SIBS, titanium, Dacron mesh, glass, PBS at 37 C) was “slow, sustained drug release”. Besides, the “Coating retained over time” value in series [2] (drop coated on SIBS and Dacron films (thicker, lower surface area coating)) is “lower and longer sustained release”; in [2] (drop coated on fibrous Dacron mesh (thin, high surface area coating)) it was “quick release of coating from the surface”. Moreover, the “Number of recruited CD68 positive cells” value in series [3] was “reduced”. Further, the “Skin observation around the coated substrate” value in series [4] is “Skin bleaching was noted”. Further, the “Cumulative drug release from the cylinders in vivo” value in series [5] is listed as “sustained dexamethasone release”. In addition, the “Capsule wall diameter (fibrotic layer thickness)” value in the series on device related fibrosis is recorded as “statistically thinner”. The “In vitro drug release profile” value in series [6] is “sustained release”. Further, the “Coating purity pre- and post-ETO sterilization” value in [7] (fibrous Dacron meshes, HPLC) is recorded as “no changes”. In series [7] (release in PBS at 37 C), the “Drug release pre- and post-ETO sterilization” value is recorded as “no changes in release properties”. In series [8], the “Drug release profiles, heat press process versus spray coating process” value is recorded as “similar”.

With “dexamethasone-hexane-dexamethasone [Compound 4]”, the “Capsule wall diameter (fibrotic layer thickness)” value with device related fibrosis is reported as “statistically thinner”.
